Entries after “also recorded” stand apart in the source; their conditions may differ. Square brackets hold non-standard residues; d marks the D form. NαhTyr = N-alpha-homo tyrosine (backbone-modified residue); NαhAla = N-alpha-homo alanine (backbone-modified residue); NαhLeu = N-alpha-homo leucine (backbone-modified residue); NαhLys = N-alpha-homo lysine (backbone-modified residue)
What was measured:
[1] = tested on: T lymphocytes of BALB/c mice injected with the modified peptide 88-99 of the histone H4; test: Mirror test: T lymphocytes of mice injected with the modified 88-99 H4 peptides, stimulated ex vivo with the analogue and the parent peptide 88-99; assay type: in vivo; conditions: for immunogenicity (induces responses against the homologous peptide): mice injected with the analogue subcutaneously with Freund's adjuvant; for cross reaction of the generated T cells with the parent peptide 88-99: mice injected with the analogue, ex vivo stimulation with parent peptide 88-99
Method: In addition, a mirror manipulation of the foregoing was performed, namely response tests on the T lymphocytes of mice injected with the modified peptides and stimulation ex vivo with the parent peptide (88-99). After injection of the analogues, analyses were performed on cell cultures with the said analogues and the parent peptide 88-99. The following results are observed:
In addition, a mirror experiment of the foregoing was performed, namely an experiment on mice injected with the peptide G and stimulation ex vivo with increasing quantities of the parent peptide (88-99).
FIG. 2: Response tests on the T lymphocytes of BALB/c mice injected with the modified peptide 88-99 A or with the modified peptide 88-99 D of the histone H4 subcutaneously with Freund's adjuvant. The stimulation index is shown on the y-axis and the different concentrations of peptide are shown on the x-axis.
FIG. 3: Response tests on the T lymphocytes of BALB/c mice injected with the modified peptide 88-99 E of the histone H4 subcutaneously with Freund's adjuvant. The stimulation index is shown on the y-axis and the different concentrations of peptide are shown on the x-axis.
FIG. 5: Response tests on the T lymphocytes of BALB/c mice injected with the modified peptide 88-99 G of the histone H4 subcutaneously with Freund's adjuvant. The stimulation index is shown on the y-axis and the different concentrations of peptide are shown on the x-axis.

[2] = tested on: T lymphocytes of BALB/c mice immunized with the parent peptide 88-99H4; test: T lymphocyte proliferation (tritiated thymidine) of mice immunized with parent peptide 88-99H4, restimulated in culture with parent peptide or analogues; assay type: cell-based; conditions: mice immunized with parent 88-99H4; for activity compared with that of the parent peptide 88-99: T cell restimulation; for index of stimulation (IS): restimulation peptide 100 μM (printed "to 100 μM"), FIG. 4; for index of stimulation (IS) relative to the wells without peptide: restimulation peptide 90 μM (printed "to 90 μM"), FIG. 1
Method: BALB/c mice were immunized with the parent peptide 88-99H4 and in cell cultures the T lymphocytes of these mice were restimulated with the same peptide or with the analogues A-E. The cell proliferation was measured by the incorporation of tritiated thymidine and the index of stimulation (1S) relative to the wells without peptide was calculated. The tests are performed in triplicate and the experiment is performed several times in independent experiments.
The same experiments were performed with peptide G, (corresponding to the sequence SEQ ID NO: 7).
FIG. 1: Response tests on the T lymphocytes of BALB/c mice injected with the parent peptide 88-99 of the histone H4 subcutaneously with Freund's adjuvant, and stimulation ex-vivo with the parent peptide or the analogue E; the stimulation index is shown on the y-axis and the different concentrations of peptide are shown on the x-axis.
FIG. 4: Response tests on the T lymphocytes of BALB/c mice injected with the parent peptide 88-99 of the histone H4 subcutaneously with Freund's adjuvant, and stimulation ex-vivo with the parent peptide or the analogue G; the stimulation index is shown on the y-axis and the different concentrations of peptide are shown on the x-axis.

Row | Substance | immunogenicity (induces responses against the homologous peptide) [1] | cross reaction of the generated T cells with the parent peptide 88-99 [1] | activity compared with that of the parent peptide 88-99 [2] | index of stimulation (IS) [2] | index of stimulation (IS) relative to the wells without peptide [2]
1 | ^88H2N-Tyr-Ala-Leu-Nα-hLys-Arg-Gln-Gly-Arg-Thr-Leu-Tyr-Gly-OH^99 (H-YAL[NαhLys]RQGRTLYG-OH; also: Nα-homo amino acid residue) [peptide D] | immunogenic | no cross reaction with the parent peptide | – | – | –
2 | ^88H2N-Tyr-Nα-hAla-Leu-Lys-Arg-Gln-Gly-Arg-Thr-Leu-Tyr-Gly-OH^99 (H-Y[NαhAla]LKRQGRTLYG-OH; also: Nα-homo amino acid residue) [peptide A] | immunogenic | no cross reaction with the parent peptide | – | – | –
3 | ^88H2N-Tyr-Ala-Leu-Lys-Arg-Gln-Gly-Arg-Thr-Nα-hLeu-Nα-hTyr-Gly-OH^99 (H-YALKRQGRT[NαhLeu][NαhTyr]G-OH; also: Nα-homo leucine and tyrosine residues) [peptide G] | immunogenic | react by cross reaction with the homologous peptide G and in particular with the parent peptide with the same intensity | analogous | 16.6 | –
4 | ^88H2N-Tyr-Ala-Leu-Lys-Arg-Gln-Gly-Arg-Thr-Nα-hLeu-Tyr-Gly-OH^99 (H-YALKRQGRT[NαhLeu]YG-OH; also: Nα-homo leucine residue) [peptide E] | immunogenic | react by cross reaction with the parent peptide; also recorded: cross reacts perfectly | analogous, or even superior depending on the experiments | – | 7.7
5 | H-Tyr-Ala-Leu-Lys-Arg-Gln-Gly-Arg-Thr-Leu-Tyr-Gly-OH (H-YALKRQGRTLYG-OH; listed as Homo sapiens) [parent peptide 88-99H4, reference compound] | – | – | – | 16.9 | 6.7

Source: patent publication US9017673B2, “Peptide analogues comprising at least one type of aminoacylaza-$g(b)3and the use thereof, in particular for therapy” (Centre National de la Recherche Scientifique, priority 2003, dated 2015)
